Source: patent publication US8338565B2, “Macrocyclic compounds for inhibition of tumor necrosis factor alpha” (Ensemble Therapeutics Corporation, priority 2008, dated 2012)
Numbered stars: 1 amine (or outer) side, 2 acyl side, 3 side chain; on linkers, the order of the positions; unused ones are H or OH. Bridge positions count the residues as written; N and C are the ends. Square brackets hold non-standard residues; d marks the D form. Peptide text beside a SMILES is read from it. * marks the point of attachment. Phe(4-NO2) = N[C@@H](Cc1ccc([N+](=O)[O-])cc1)C(=O)O; Bip(2'-Me) = Cc1ccccc1-c1ccc(C[C@H](N)C(=O)O)cc1; Phe(3,4-(OMe)2) = COc1ccc(C[C@H](N)C(=O)O)cc1OC; Phe(3-Ph) = N[C@@H](Cc1cccc(-c2ccccc2)c1)C(=O)O; Phe(4-tBu) = CC(C)(C)c1ccc(C[C@H](N)C(=O)O)cc1; Bip = N[C@@H](Cc1ccc(-c2ccccc2)cc1)C(=O)O; Phe(4-CN) = N#Cc1ccc(C[C@H](N)C(=O)O)cc1; Phe(4-Cl) = N[C@@H](Cc1ccc(Cl)cc1)C(=O)O; Phe(4-NH2) = Nc1ccc(C[C@H](N)C(=O)O)cc1; Phe(4-Me) = Cc1ccc(C[C@H](N)C(=O)O)cc1; 1Nal = N[C@@H](Cc1cccc2ccccc12)C(=O)O; 2Nal = N[C@@H](Cc1ccc2ccccc2c1)C(=O)O; His(τ-Me) = Cn1cnc(C[C@H](N)C(=O)O)c1; Met(O2) = CS(=O)(=O)CC[C@H](N)C(=O)O; d(hPhe) = N[C@H](CCc1ccccc1)C(=O)O; mTyr = N[C@@H](Cc1cccc(O)c1)C(=O)O; Igl = N[C@H](C(=O)O)C1Cc2ccccc2C1; hPhe = N[C@@H](CCc1ccccc1)C(=O)O; 2Thi = N[C@@H](Cc1cccs1)C(=O)O; d2Thi = N[C@H](Cc1cccs1)C(=O)O; dPhg = N[C@@H](C(=O)O)c1ccccc1; Suc = O=C(CCC(=O)[*:2])[*:1]; Nicotinoyl = O=C(c1cccnc1)*; Nphe = O=C(O)CNCc1ccccc1; Bn = c1ccc(C*)cc1

What follows are molecules tested against T1, TNFα / TNFα receptor (TNFα R1/Fc) (Homo sapiens, UniProt P01375) (assay: Inhibition of binding of TNFα to the TNFα receptor (plate ELISA competition)). Conditions: Table 2; read-out: Activity (IC50, inhibition of TNFα binding to TNFα R1/Fc).
T1 construct: purchased R&D Systems
T1 sequence (P01375 77-233 limits assumed, species assumed): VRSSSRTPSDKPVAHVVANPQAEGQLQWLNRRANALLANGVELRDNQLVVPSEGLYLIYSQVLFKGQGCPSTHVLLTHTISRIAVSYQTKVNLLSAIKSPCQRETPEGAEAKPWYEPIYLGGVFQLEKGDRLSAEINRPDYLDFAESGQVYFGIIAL
Protocol: The compounds listed in Table 2 below were assayed for ability to inhibit binding of TNFα to the TNFα receptor (TNFα R1/Fc). The assays were performed as described in the following procedure: TNFα (R&D Systems) was coated on high binding plate wells (Corning 96-well) at a single uniform concentration of 15 nM, 100 μL/well in PBS. The coating proceeded for 30 minutes at 37° C. then 10 minutes at 4° C. The coated plate was washed with PBST, then 250 μL/well of blocking solution (PBST 0.1% BSA, bovine serum albumin) was added and incubation proceeded for 30-45 minutes at room temperature with agitation. The solution phase competition proceeded separately with the dilutions of test compound in PBST (phosphate buffered saline with Tween 20), 2% DMSO in a polypropylene plate (Corning 96-well storage plate) with a single concentration, 8.33 nM of the high affinity receptor for TNFα (R&D Systems). This solution phase incubation proceeded for 30 minutes at room temperature with agitation and was then added to the washed TNFα coated assay plate, 100 μL/well, and was incubated for a further 30 minutes at room temperature with agitation. The assay plate was washed and 100 μL goat anti-human IgG (Fc) HRP labeled antibody in PBST, 13 pM, (KPL Cat#04-10-2) was added to each well. This incubation proceeded for 25-30 minutes at room temperature with agitation. Following this incubation step, the plate was washed and a 100 μL TMB solution (SUREBLUE™ TMB Peroxidase substrate, KPL) was added per well and allowed to stand approximately 3-5 minutes for development. The TMB reaction was stopped with the addition of 0.5N HCl and then the plate was read for absorbance at 450 nm.
CC(C)(C)c1ccc(C[C@@H]2NC(=O)[C@@H](Cc3cccs3)NC(=O)CCC(=O)Nc3ccc(cc3)C[C@@H](C(=O)O)NC(=O)[C@@H](Cc3ccccc3)NC2=O)cc1 [Compound 90] ([d2Thi][Phe(4-tBu)][dF][Phe(4-NH2)]-OH; linker N-4 via Suc) was tested, and the IC50 was greater than 100 µM. O=C1CCC(=O)N[C@H](Cc2cccs2)C(=O)N[C@@H](CCc2ccccc2)C(=O)N[C@H](Cc2ccccc2)C(=O)N[C@H](C(=O)O)Cc2ccc(cc2)N1 [Compound 91] ([d2Thi][hPhe][dF][Phe(4-NH2)]-OH; linker N-4 via Suc) was tested, and the IC50 was greater than 100 µM. With O=C1CCC(=O)N[C@H](Cc2cccs2)C(=O)N[C@@H](Cc2ccc(OCc3ccccc3)cc2)C(=O)N[C@H](Cc2ccccc2)C(=O)N[C@H](C(=O)O)Cc2ccc(cc2)N1 [Compound 92] ([d2Thi]Y(Bn)[dF][Phe(4-NH2)]-OH; linker N-4 via Suc) the IC50 was 30 to 100 µM. Molecule COc1ccc(C[C@@H]2NC(=O)[C@@H](Cc3cccs3)NC(=O)CCC(=O)Nc3ccc(cc3)C[C@@H](C(=O)O)NC(=O)[C@@H](Cc3ccccc3)NC2=O)cc1OC [Compound 93] ([d2Thi][Phe(3,4-(OMe)2)][dF][Phe(4-NH2)]-OH; linker N-4 via Suc) has an IC50 greater than 100 µM. In the case of N#Cc1ccc(C[C@@H]2NC(=O)[C@@H](Cc3cccs3)NC(=O)CCC(=O)Nc3ccc(cc3)C[C@@H](C(=O)O)NC(=O)[C@@H](Cc3ccccc3)NC2=O)cc1 [Compound 94] ([d2Thi][Phe(4-CN)][dF][Phe(4-NH2)]-OH; linker N-4 via Suc), the IC50 is reported as greater than 100 µM. Molecule Cc1ccccc1-c1ccc(C[C@@H]2NC(=O)[C@@H](Cc3cccs3)NC(=O)CCC(=O)Nc3ccc(cc3)C[C@@H](C(=O)O)NC(=O)[C@@H](Cc3ccccc3)NC2=O)cc1 [Compound 95] ([d2Thi][Bip(2'-Me)][dF][Phe(4-NH2)]-OH; linker N-4 via Suc) has an IC50 of 30 to 100 µM. Molecule O=C1CCC(=O)N[C@H](Cc2cccs2)C(=O)N[C@@H](CCCCNC(=O)c2cccnc2)C(=O)N[C@H](Cc2ccccc2)C(=O)N[C@H](C(=O)O)Cc2ccc(cc2)N1 [Compound 96] ([d2Thi]K(Nicotinoyl)[dF][Phe(4-NH2)]-OH; linker N-4 via Suc) has an IC50 greater than 100 µM. O=C1CCC(=O)N[C@H](Cc2cccs2)C(=O)N[C@@H](Cc2cccs2)C(=O)N[C@H](Cc2ccccc2)C(=O)N[C@H](C(=O)O)Cc2ccc(cc2)N1 [Compound 97] ([d2Thi][2Thi][dF][Phe(4-NH2)]-OH; linker N-4 via Suc) gave an IC50 greater than 100 µM. Molecule CS(=O)(=O)CC[C@@H]1NC(=O)[C@@H](Cc2cccs2)NC(=O)CCC(=O)Nc2ccc(cc2)C[C@@H](C(=O)O)NC(=O)[C@@H](Cc2ccccc2)NC1=O [Compound 98] ([d2Thi][Met(O2)][dF][Phe(4-NH2)]-OH; linker N-4 via Suc) has an IC50 greater than 100 µM. O=C1CCC(=O)N[C@H](Cc2cccs2)C(=O)N[C@@H](C2Cc3ccccc3C2)C(=O)N[C@H](Cc2ccccc2)C(=O)N[C@H](C(=O)O)Cc2ccc(cc2)N1 [Compound 99] ([d2Thi][Igl][dF][Phe(4-NH2)]-OH; linker N-4 via Suc) gave an IC50 greater than 100 µM. Cn1cnc(C[C@@H]2NC(=O)[C@@H](Cc3cccs3)NC(=O)CCC(=O)Nc3ccc(cc3)C[C@@H](C(=O)O)NC(=O)[C@@H](Cc3ccccc3)NC2=O)c1 [Compound 100] ([d2Thi][His(τ-Me)][dF][Phe(4-NH2)]-OH; linker N-4 via Suc) gave an IC50 greater than 100 µM. In the case of O=C1CCC(=O)N[C@H](Cc2cccs2)C(=O)N(Cc2ccccc2)CC(=O)N[C@H](Cc2ccccc2)C(=O)N[C@H](C(=O)O)Cc2ccc(cc2)N1 [Compound 101] ([d2Thi][Nphe][dF][Phe(4-NH2)]-OH; linker N-4 via Suc), the IC50 is reported as greater than 100 µM. O=C1CCC(=O)N[C@H](Cc2cccs2)C(=O)N[C@@H](Cc2cccc(O)c2)C(=O)N[C@H](Cc2ccccc2)C(=O)N[C@H](C(=O)O)Cc2ccc(cc2)N1 [Compound 102] ([d2Thi][mTyr][dF][Phe(4-NH2)]-OH; linker N-4 via Suc) showed an IC50 greater than 100 µM. Cc1ccc(C[C@@H]2NC(=O)[C@@H](Cc3cccs3)NC(=O)CCC(=O)Nc3ccc(cc3)C[C@@H](C(=O)O)NC(=O)[C@@H](Cc3ccccc3)NC2=O)cc1 [Compound 103] ([d2Thi][Phe(4-Me)][dF][Phe(4-NH2)]-OH; linker N-4 via Suc) showed an IC50 greater than 100 µM. Molecule COc1ccc(C[C@@H]2NC(=O)[C@@H](Cc3cccs3)NC(=O)CCC(=O)Nc3ccc(cc3)C[C@@H](C(=O)O)NC(=O)[C@@H](Cc3ccccc3)NC2=O)cc1 [Compound 104] ([d2Thi]Y(Me)[dF][Phe(4-NH2)]-OH; linker N-4 via Suc) has an IC50 greater than 100 µM. O=C1CCC(=O)N[C@H](Cc2cccs2)C(=O)N[C@@H](Cc2ccc(Cl)cc2)C(=O)N[C@H](Cc2ccccc2)C(=O)N[C@H](C(=O)O)Cc2ccc(cc2)N1 [Compound 105] ([d2Thi][Phe(4-Cl)][dF][Phe(4-NH2)]-OH; linker N-4 via Suc) showed an IC50 of 30 to 100 µM. In the case of O=C1CCC(=O)N[C@H](Cc2cccs2)C(=O)N[C@@H](Cc2ccc([N+](=O)[O-])cc2)C(=O)N[C@H](Cc2ccccc2)C(=O)N[C@H](C(=O)O)Cc2ccc(cc2)N1 [Compound 106] ([d2Thi][Phe(4-NO2)][dF][Phe(4-NH2)]-OH; linker N-4 via Suc), the IC50 is reported as greater than 100 µM. O=C1CCC(=O)N[C@H](Cc2cccs2)C(=O)N[C@H](c2ccc(Br)cc2)CC(=O)N[C@H](Cc2ccccc2)C(=O)N[C@H](C(=O)O)Cc2ccc(cc2)N1 [Compound 107] showed an IC50 greater than 100 µM. O=C1CCC(=O)N[C@H](CCc2ccccc2)C(=O)N[C@@H](Cc2cccc3ccccc23)C(=O)N[C@H](Cc2ccccc2)C(=O)N[C@H](C(=O)O)Cc2ccc(cc2)N1 [Compound 108] ([d(hPhe)][1Nal][dF][Phe(4-NH2)]-OH; linker N-4 via Suc) was tested, and the IC50 was 10 to 30 µM. O=C1CCC(=O)N[C@H](CCc2ccccc2)C(=O)N[C@@H](Cc2ccc3ccccc3c2)C(=O)N[C@H](Cc2ccccc2)C(=O)N[C@H](C(=O)O)Cc2ccc(cc2)N1 [Compound 109] ([d(hPhe)][2Nal][dF][Phe(4-NH2)]-OH; linker N-4 via Suc) showed an IC50 of 10 to 30 µM. Molecule COc1cccc(-c2ccc(C[C@@H]3NC(=O)[C@@H](CCc4ccccc4)NC(=O)CCC(=O)Nc4ccc(cc4)C[C@@H](C(=O)O)NC(=O)[C@@H](Cc4ccccc4)NC3=O)cc2)c1 [Compound 110] has an IC50 of 10 to 30 µM. Work on O=C1CCC(=O)N[C@H](CCc2ccccc2)C(=O)N[C@@H](Cc2cccc(-c3ccccc3)c2)C(=O)N[C@H](Cc2ccccc2)C(=O)N[C@H](C(=O)O)Cc2ccc(cc2)N1 [Compound 113] ([d(hPhe)][Phe(3-Ph)][dF][Phe(4-NH2)]-OH; linker N-4 via Suc) yielded an IC50 of 10 to 30 µM. O=C1CCC(=O)N[C@H](CCc2ccccc2)C(=O)N[C@@H](Cc2ccc(-c3ncccn3)cc2)C(=O)N[C@H](Cc2ccccc2)C(=O)N[C@H](C(=O)O)Cc2ccc(cc2)N1 [Compound 114] was tested, and the IC50 was greater than 100 µM. O=C1CCC(=O)N[C@H](CCc2ccccc2)C(=O)N[C@@H](Cc2ccc(-n3cccn3)cc2)C(=O)N[C@H](Cc2ccccc2)C(=O)N[C@H](C(=O)O)Cc2ccc(cc2)N1 [Compound 115] was tested, and the IC50 was greater than 100 µM. O=C1CCC(=O)NN(Cc2ccccc2)C(=O)N[C@@H](Cc2ccc(-c3ccccc3)cc2)C(=O)N[C@H](Cc2ccccc2)C(=O)N[C@H](C(=O)O)Cc2ccc(cc2)N1 [Compound 119] showed an IC50 of 30 to 100 µM. Molecule O=C1CCC(=O)N[C@H](c2ccccc2)C(=O)N[C@@H](Cc2ccc(-c3ccccc3)cc2)C(=O)N[C@H](Cc2ccccc2)C(=O)N[C@H](C(=O)O)Cc2ccc(cc2)N1 [Compound 120] ([dPhg][Bip][dF][Phe(4-NH2)]-OH; linker N-4 via Suc) has an IC50 greater than 100 µM.
